Experiments:
[1] = system: enzyme associated with Bacillus stearothermophilus spores; assay: Rapid enzyme fluorescence readout of indicators after hydrogen peroxide plasma sterilization; assay type: biochemical; conditions: 1–22 min diffusion
Protocol: (§1) Sterilization indicators for Examples 6–9 were prepared as described above with the exception that closure member 22 of the sterilization indicator was constructed of TYVEK™ high-density polyethylene fiber material, commercially available from E.I. du Pont de Nemours and Co., Wilmington, Del.
(§2) Sterilization indicators were made as described above with spores that had been coated with each of the chemicals and concentrations listed in Table 6. The indicators were placed in instrument trays and exposed to a hydrogen peroxide plasma sterilization procedure at 45–55° C. in a STERRAD™ 100SI GMP Sterilizer, obtained from Advanced Sterilization Products Co., Irvine, Calif. During the sterilization procedure a vacuum was drawn in the sterilization chamber for 5–6 minutes until the pressure was reduced to 300 mTorr. A 1.8 ml aliquot of an aqueous solution of 58–60% hydrogen peroxide was then injected into the sterilization chamber over a period of about 6 minutes, yielding an empty chamber concentration of […] hydrogen peroxide, and hydrogen peroxide vapor was allowed to diffuse throughout the chamber for 1–22 minutes at 6–10 Torr. A vacuum was then drawn, reducing the pressure to 500 mTorr and removing all detectable hydrogen peroxide vapor from the chamber.
(§3) After exposure to the sterilization procedure, the indicators were removed from the sterilizer and the inner containers containing the enzyme substrate and nutrient medium were crushed. The indicators were then incubated at 60° C. and examined for fluorescence every hour for 5 hours using a 3M™ ATTEST™ Model 190 Rapid Autoreader, commercially available from 3M Company, St. Paul, Minn. Additionally, spore growth, as indicated by a color change from purple to yellow, was determined visually after 168 hours of incubation.
(§4) The number of growth positive indicators detected after 168 hours of incubation is recorded in Table 6.
as §2, with “7.” for “6.”
as §2, with “8.” for “6.”, “chamber. […]” for “chamber.”

[2] = system: Bacillus stearothermophilus spores; assay: Spore outgrowth (color change) of indicators after prevacuum steam sterilization; assay type: cell-based; conditions: 4-pulse prevacuum steam 121° C.
Procedure, shortened: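 Bacillus stearothermophilus ATCC 7953 spores were cleaned, mixed into a heated sterilant-resistant coating chemical solution and pipetted onto paper strips at about 1×10^6 spores per strip. The strips were dried and placed in indicators, then exposed to a 4-pulse prevacuum steam cycle at 121° C. After exposure the media ampoule was crushed, and growth was judged visually as a purple-to-yellow color change after 168 hours at 60° C.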

[3] = system: enzyme associated with Bacillus stearothermophilus spores; assay: Rapid enzyme fluorescence readout of dual rapid readout indicators after prevacuum steam sterilization; assay type: biochemical; conditions: 4-pulse prevacuum steam 121° C.
Procedure, shortened: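 Bacillus stearothermophilus ATCC 7953 spores were coated with a sterilant-resistant chemical solution and pipetted onto paper strips at about 1×10^6 spores per strip. Each strip sat in a dual rapid readout indicator beside a crushable inner container of nutrient medium holding 4-methylumbelliferyl-alpha-D-glucoside at pH 7.6. Indicators went through a 4-pulse prevacuum steam cycle at 121° C, were activated, incubated at 60° C, and read for fluorescence on a 3M ATTEST Model 190 Rapid Autoreader.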

[4] = system: Bacillus stearothermophilus spores; assay: Spore outgrowth (color change) of indicators after hydrogen peroxide plasma sterilization; assay type: cell-based; conditions: 1–22 min diffusion
Protocol: as §1, §2, §3, §4
as §2, with “7.” for “6.”
as §2, with “8.” for “6.”, “chamber. […]” for “chamber.”

[5] = Example 4, 50 mg/ml coating, 7–18 min
[6] = Example 4, 100 mg/ml coating, 7–18 min
[7] = Example 5, 50 mg/ml coating, 7–13 min
[8] = Example 5, 100 mg/ml coating, 7–13 min

Row | Substance | NO. GROWTH POSITIVE 168 HR [2, 5] | NO. GROWTH POSITIVE 168 HR [2, 6] | FLUORESCENCE - PERCENT POSITIVE 1 HR [3, 5] | FLUORESCENCE - PERCENT POSITIVE 2 HR [3, 5] | FLUORESCENCE - PERCENT POSITIVE 3 HR [3, 5] | FLUORESCENCE - PERCENT POSITIVE 4 HR [3, 5] | FLUORESCENCE - PERCENT POSITIVE 1 HR [3, 6] | FLUORESCENCE - PERCENT POSITIVE 2 HR [3, 6] | FLUORESCENCE - PERCENT POSITIVE 3 HR [3, 6] | FLUORESCENCE - PERCENT POSITIVE 4 HR [3, 6] | FLUORESCENCE - PERCENT POSITIVE 1 HR ([1]; Example 8, 50 mg/ml coating) | FLUORESCENCE - PERCENT POSITIVE 2 HR ([1]; Example 8, 50 mg/ml coating) | FLUORESCENCE - PERCENT POSITIVE 3 HR ([1]; Example 8, 50 mg/ml coating) | FLUORESCENCE - PERCENT POSITIVE 4 HR ([1]; Example 8, 50 mg/ml coating) | FLUORESCENCE - PERCENT POSITIVE 5 HR ([1]; Example 8, 50 mg/ml coating) | NO. GROWTH POSITIVE 168 HR ([4]; Example 8, 50 mg/ml coating) | also measured
1 | Hexaglyceryl Polyricinolate | 23 | 31 | 0% | 13.0% | 52.2% | 56.5% | 9.7% | 19.4% | 32.3% | 45.2% |  |  |  |  |  |  | FLUORESCENCE - PERCENT POSITIVE 1 HR ([1]; Example 7, 50 mg/ml coating): 83.3%; FLUORESCENCE - PERCENT POSITIVE 2 HR ([1]; Example 7, 50 mg/ml coating): 91.7%; FLUORESCENCE - PERCENT POSITIVE 3 HR ([1]; Example 7, 50 mg/ml coating): 91.7%; FLUORESCENCE - PERCENT POSITIVE 4 HR ([1]; Example 7, 50 mg/ml coating): 91.7%; FLUORESCENCE - PERCENT POSITIVE 5 HR ([1]; Example 7, 50 mg/ml coating): 91.7%; NO. GROWTH POSITIVE 168 HR ([4]; Example 7, 50 mg/ml coating): 12
2 | Decaglyceryl Dipalmitate | 28 | 26 | 7.1% | 67.9% | 89.3% | 92.9% | 34.6% | 61.5% | 69.2% | 69.2% | 66.7% | 74.1% | 77.8% | 77.8% | 77.8% | 27 | accuracy of sterilization indicators compared to indicators made with untreated spores [3]: improved
3 | Sodium POE(8) Oleyl Ether Phosphate |  |  |  |  |  |  |  |  |  |  | 0% | 0% | 0% | 0% | 0% | 0 | FLUORESCENCE - PERCENT POSITIVE 1 HR ([1]; Example 8, 100 mg/ml coating): 0%; FLUORESCENCE - PERCENT POSITIVE 2 HR ([1]; Example 8, 100 mg/ml coating): 0%; FLUORESCENCE - PERCENT POSITIVE 3 HR ([1]; Example 8, 100 mg/ml coating): 0%; FLUORESCENCE - PERCENT POSITIVE 4 HR ([1]; Example 8, 100 mg/ml coating): 0%; FLUORESCENCE - PERCENT POSITIVE 5 HR ([1]; Example 8, 100 mg/ml coating): 0%; NO. GROWTH POSITIVE 168 HR [2, 7]: 6; NO. GROWTH POSITIVE 168 HR [2, 8]: 3; FLUORESCENCE - PERCENT POSITIVE 1 HR [3, 7]: 0%; FLUORESCENCE - PERCENT POSITIVE 2 HR [3, 7]: 0%; FLUORESCENCE - PERCENT POSITIVE 3 HR [3, 7]: 0%; FLUORESCENCE - PERCENT POSITIVE 4 HR [3, 7]: 0%; FLUORESCENCE - PERCENT POSITIVE 1 HR [3, 8]: 0%; FLUORESCENCE - PERCENT POSITIVE 2 HR [3, 8]: 0%; FLUORESCENCE - PERCENT POSITIVE 3 HR [3, 8]: 0%; FLUORESCENCE - PERCENT POSITIVE 4 HR [3, 8]: 0%; NO. GROWTH POSITIVE 168 HR ([4]; Example 8, 100 mg/ml coating): 0

— US7045343B2, “Sterilization indicator test packs” (3M Innovative Properties Company, priority 1998, dated 2006)
